Test results reported in paper PMC8159961, “Exploring protein hotspots by optimized fragment pharmacophores” (Nature Communications, 2021).

Key:
human 5-HT1A receptor = molecular target: T1, human 5-HT1A receptor (Homo sapiens, UniProt P08908); test: GPCR radioligand binding assay, [3H]-8-OH-DPAT displacement, HEK293 membranes; conditions: for %inh 5-HT1A average: average of exp_1 and exp_2; for %inh 5-HT1A corrected*: average, values below 0 and above 100% were set as 0 and 100; for %inh 5-HT1A exp_1: replicate exp_1; for %inh 5-HT1A exp_2: replicate exp_2; for 5-HT1A % Inhibition by plate position: 10 µM
T1 construct: expressed in transfected cells
T1 sequence (P08908 1-422): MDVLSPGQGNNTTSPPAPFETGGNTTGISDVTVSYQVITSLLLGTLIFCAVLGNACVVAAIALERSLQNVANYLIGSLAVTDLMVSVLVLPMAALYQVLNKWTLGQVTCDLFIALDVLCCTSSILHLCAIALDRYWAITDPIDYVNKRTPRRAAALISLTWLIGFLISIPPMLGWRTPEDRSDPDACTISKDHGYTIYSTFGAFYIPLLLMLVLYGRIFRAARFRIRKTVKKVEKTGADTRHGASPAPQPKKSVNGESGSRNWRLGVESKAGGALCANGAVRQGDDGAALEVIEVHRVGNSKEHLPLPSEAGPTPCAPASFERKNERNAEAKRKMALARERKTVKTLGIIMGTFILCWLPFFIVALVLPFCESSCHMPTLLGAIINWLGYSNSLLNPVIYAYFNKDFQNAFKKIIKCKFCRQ

human 5-HT7b receptor = molecular target: T2, human 5-HT7b receptor (Homo sapiens, UniProt P34969); test: GPCR radioligand binding assay, [3H]-5-CT displacement, HEK293 membranes; conditions: for 5-HT7 % Inhibition by plate position: 10 µM; for %inh 5-HT7 exp_1: replicate exp_1; for %inh 5-HT7 exp_2: replicate exp_2; for %inh 5-HT7 average: average of exp_1 and exp_2
T2 construct: expressed in transfected cells

human 5-HT6 receptor = molecular target: T3, human 5-HT6 receptor (Homo sapiens, UniProt P50406); test: GPCR radioligand binding assay, [3H]-LSD displacement, HEK293 membranes; conditions: for 5-HT6 % Inhibition by plate position: 10 µM; for %inh 5-HT6 average: average of exp_1 and exp_2; for %inh 5-HT6 corrected*: average, values below 0 and above 100% were set as 0 and 100; for %inh 5-HT6 exp_1: replicate exp_1; for %inh 5-HT6 exp_2: replicate exp_2
T3 construct: expressed in transfected cells
T3 sequence (P50406 whole entry): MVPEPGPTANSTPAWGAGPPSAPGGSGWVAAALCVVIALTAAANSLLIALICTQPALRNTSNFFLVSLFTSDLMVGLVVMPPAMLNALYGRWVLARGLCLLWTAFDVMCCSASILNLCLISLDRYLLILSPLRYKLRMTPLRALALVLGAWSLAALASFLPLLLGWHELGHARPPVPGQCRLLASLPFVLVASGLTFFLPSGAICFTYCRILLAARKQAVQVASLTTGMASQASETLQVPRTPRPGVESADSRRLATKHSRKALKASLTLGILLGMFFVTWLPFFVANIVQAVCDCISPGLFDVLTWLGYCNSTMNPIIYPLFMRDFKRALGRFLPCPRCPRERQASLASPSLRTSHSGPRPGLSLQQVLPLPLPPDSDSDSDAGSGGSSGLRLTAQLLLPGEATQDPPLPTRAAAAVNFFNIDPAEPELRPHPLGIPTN

T2 sequence (P34969 1-432): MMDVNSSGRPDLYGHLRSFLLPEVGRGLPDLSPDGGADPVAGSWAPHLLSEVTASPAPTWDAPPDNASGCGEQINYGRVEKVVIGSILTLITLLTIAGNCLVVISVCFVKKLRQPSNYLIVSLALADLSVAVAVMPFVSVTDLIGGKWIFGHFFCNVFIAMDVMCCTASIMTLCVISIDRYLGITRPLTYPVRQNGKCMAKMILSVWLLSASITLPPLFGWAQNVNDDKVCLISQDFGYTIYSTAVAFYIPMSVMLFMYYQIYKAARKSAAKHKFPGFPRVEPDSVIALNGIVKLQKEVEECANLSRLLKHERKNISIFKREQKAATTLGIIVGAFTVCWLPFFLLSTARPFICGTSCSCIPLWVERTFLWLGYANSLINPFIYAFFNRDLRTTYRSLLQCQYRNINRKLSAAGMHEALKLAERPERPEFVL

## O=C(c1ccncc1)N1CCNCC1 [E2]
Human 5-HT1A receptor
  %inh 5-HT1A average: 3.69%
  %inh 5-HT1A corrected*: 3.69%
  %inh 5-HT1A exp_1: 13%
  %inh 5-HT1A exp_2: -6%
Human 5-HT7b receptor
  5-HT7 % Inhibition by plate position: 3.34%
  %inh 5-HT7 exp_1: 1.81%
  %inh 5-HT7 exp_2: 5%
Human 5-HT6 receptor
  5-HT6 % Inhibition by plate position: 24%
  %inh 5-HT6 average: 24%
  %inh 5-HT6 corrected*: 24%
  %inh 5-HT6 exp_1: 15%
  %inh 5-HT6 exp_2: 33%

## CC1C(=O)NC(=O)N1c1ccc(Cl)cc1 (stereo not shown) [E3]
Human 5-HT1A receptor
  5-HT1A % Inhibition by plate position: 0%
  %inh 5-HT1A average: -4%
  %inh 5-HT1A exp_1: 5%
  %inh 5-HT1A exp_2: -13%
Human 5-HT7b receptor
  5-HT7 % Inhibition by plate position: 17%
  %inh 5-HT7 exp_1: 19%
  %inh 5-HT7 exp_2: 14%
Human 5-HT6 receptor
  5-HT6 % Inhibition by plate position: 43%
  %inh 5-HT6 average: 43%
  %inh 5-HT6 corrected*: 43%
  %inh 5-HT6 exp_1: 41%
  %inh 5-HT6 exp_2: 44%

## CCN(CC)c1cccc(C)c1 [E4]
Human 5-HT1A receptor
  %inh 5-HT1A average: 8.49%
  %inh 5-HT1A corrected*: 8.49%
  %inh 5-HT1A exp_1: 13%
  %inh 5-HT1A exp_2: 4%
Human 5-HT7b receptor
  5-HT7 % Inhibition by plate position: 7.56%
  %inh 5-HT7 exp_1: 12%
  %inh 5-HT7 exp_2: 2.81%
Human 5-HT6 receptor
  5-HT6 % Inhibition by plate position: 31%
  %inh 5-HT6 average: 31%
  %inh 5-HT6 corrected*: 31%
  %inh 5-HT6 exp_1: 31%
  %inh 5-HT6 exp_2: 32%

## O=C(CN1CCNCC1)c1ccccc1 [E5]
Human 5-HT1A receptor
  %inh 5-HT1A average: 6%
  %inh 5-HT1A corrected*: 6%
  %inh 5-HT1A exp_1: 9.52%
  %inh 5-HT1A exp_2: 3%
Human 5-HT7b receptor
  5-HT7 % Inhibition by plate position: 8%
  %inh 5-HT7 exp_1: 14%
  %inh 5-HT7 exp_2: 3%
Human 5-HT6 receptor
  5-HT6 % Inhibition by plate position: 49%
  %inh 5-HT6 average: 49%
  %inh 5-HT6 corrected*: 49%
  %inh 5-HT6 exp_1: 45%
  %inh 5-HT6 exp_2: 54%

## Clc1ccc2nnnn2n1 [E6]
Human 5-HT1A receptor
  %inh 5-HT1A average: 3.55%
  %inh 5-HT1A corrected*: 3.55%
  %inh 5-HT1A exp_1: 3.18%
  %inh 5-HT1A exp_2: 4%
Human 5-HT7b receptor
  5-HT7 % Inhibition by plate position: 0%
  %inh 5-HT7 average: -13%
  %inh 5-HT7 exp_1: -5%
  %inh 5-HT7 exp_2: -20%
Human 5-HT6 receptor
  5-HT6 % Inhibition by plate position: 35%
  %inh 5-HT6 average: 35%
  %inh 5-HT6 corrected*: 35%
  %inh 5-HT6 exp_1: 38%
  %inh 5-HT6 exp_2: 31%

## c1cnc2c(c1)NCCC2 [E7]
Human 5-HT1A receptor
  %inh 5-HT1A average: 12%
  %inh 5-HT1A corrected*: 12%
  %inh 5-HT1A exp_1: 15%
  %inh 5-HT1A exp_2: 9%
Human 5-HT7b receptor
  5-HT7 % Inhibition by plate position: 0%
  %inh 5-HT7 average: -3.73%
  %inh 5-HT7 exp_1: 6%
  %inh 5-HT7 exp_2: -14%
Human 5-HT6 receptor
  5-HT6 % Inhibition by plate position: 28%
  %inh 5-HT6 average: 28%
  %inh 5-HT6 corrected*: 28%
  %inh 5-HT6 exp_1: 28%
  %inh 5-HT6 exp_2: 29%

## COc1cccc(NC2=NCCCCC2)c1 [E8]
Human 5-HT1A receptor
  %inh 5-HT1A average: 11%
  %inh 5-HT1A corrected*: 11%
  %inh 5-HT1A exp_1: 11%
  %inh 5-HT1A exp_2: 11%
Human 5-HT7b receptor
  5-HT7 % Inhibition by plate position: 0%
  %inh 5-HT7 average: -5%
  %inh 5-HT7 exp_1: 3.36%
  %inh 5-HT7 exp_2: -13%
Human 5-HT6 receptor
  5-HT6 % Inhibition by plate position: 14%
  %inh 5-HT6 average: 14%
  %inh 5-HT6 corrected*: 14%
  %inh 5-HT6 exp_1: 17%
  %inh 5-HT6 exp_2: 12%

## N#Cc1ccc(C(=O)N2CCOCC2)cc1 [E10]
Human 5-HT1A receptor
  5-HT1A % Inhibition by plate position: 0%
  %inh 5-HT1A average: -13%
  %inh 5-HT1A exp_1: -3%
  %inh 5-HT1A exp_2: -23%
Human 5-HT7b receptor
  5-HT7 % Inhibition by plate position: 9%
  %inh 5-HT7 exp_1: 10%
  %inh 5-HT7 exp_2: 7%
Human 5-HT6 receptor
  5-HT6 % Inhibition by plate position: 37%
  %inh 5-HT6 average: 37%
  %inh 5-HT6 corrected*: 37%
  %inh 5-HT6 exp_1: 33%
  %inh 5-HT6 exp_2: 41%

## Oc1ccc(C2CCNCC2)cc1 [E11]
Human 5-HT1A receptor
  %inh 5-HT1A average: 5.37%
  %inh 5-HT1A corrected*: 5.37%
  %inh 5-HT1A exp_1: 3%
  %inh 5-HT1A exp_2: 8%
Human 5-HT7b receptor
  5-HT7 % Inhibition by plate position: 11%
  %inh 5-HT7 exp_1: 10%
  %inh 5-HT7 exp_2: 12%
Human 5-HT6 receptor
  5-HT6 % Inhibition by plate position: 43%
  %inh 5-HT6 average: 43%
  %inh 5-HT6 corrected*: 43%
  %inh 5-HT6 exp_1: 44%
  %inh 5-HT6 exp_2: 42%

## COC(=O)c1c(C)nc(C2CC2)[nH]c1=O [F1]
Human 5-HT1A receptor
  %inh 5-HT1A average: 16%
  %inh 5-HT1A corrected*: 16%
  %inh 5-HT1A exp_1: 17%
  %inh 5-HT1A exp_2: 15%
Human 5-HT7b receptor
  5-HT7 % Inhibition by plate position: 23%
  %inh 5-HT7 exp_1: 23%
  %inh 5-HT7 exp_2: 22%
Human 5-HT6 receptor
  5-HT6 % Inhibition by plate position: 41%
  %inh 5-HT6 average: 41%
  %inh 5-HT6 corrected*: 41%
  %inh 5-HT6 exp_1: 38%
  %inh 5-HT6 exp_2: 44%

## N#CC1CCS(=O)(=O)C1 (stereo not shown) [F2]
Human 5-HT1A receptor
  5-HT1A % Inhibition by plate position: 0%
  %inh 5-HT1A average: -0.934%
  %inh 5-HT1A exp_1: 12%
  %inh 5-HT1A exp_2: -14%
Human 5-HT7b receptor
  5-HT7 % Inhibition by plate position: 20%
  %inh 5-HT7 exp_1: 21%
  %inh 5-HT7 exp_2: 19%
Human 5-HT6 receptor
  5-HT6 % Inhibition by plate position: 22%
  %inh 5-HT6 average: 22%
  %inh 5-HT6 corrected*: 22%
  %inh 5-HT6 exp_1: 22%
  %inh 5-HT6 exp_2: 22%

## N#CCCN1CCc2ccccc21 [F4]
Human 5-HT1A receptor
  5-HT1A % Inhibition by plate position: 0%
  %inh 5-HT1A average: -7%
  %inh 5-HT1A exp_1: -1.29%
  %inh 5-HT1A exp_2: -12%
Human 5-HT7b receptor
  5-HT7 % Inhibition by plate position: 3%
  %inh 5-HT7 exp_1: 1.81%
  %inh 5-HT7 exp_2: 4.42%
Human 5-HT6 receptor
  5-HT6 % Inhibition by plate position: 23%
  %inh 5-HT6 average: 23%
  %inh 5-HT6 corrected*: 23%
  %inh 5-HT6 exp_1: 26%
  %inh 5-HT6 exp_2: 20%

## O=C(O)c1cccc(Nc2ncccn2)c1 [F5]
Human 5-HT1A receptor
  %inh 5-HT1A average: 10%
  %inh 5-HT1A corrected*: 10%
  %inh 5-HT1A exp_1: 9%
  %inh 5-HT1A exp_2: 11%
Human 5-HT7b receptor
  5-HT7 % Inhibition by plate position: 12%
  %inh 5-HT7 exp_1: 11%
  %inh 5-HT7 exp_2: 13%
Human 5-HT6 receptor
  5-HT6 % Inhibition by plate position: 50%
  %inh 5-HT6 average: 50%
  %inh 5-HT6 corrected*: 50%
  %inh 5-HT6 exp_1: 58%
  %inh 5-HT6 exp_2: 42%

## O=C(Nc1ccccc1)C1CC1 [F6]
Human 5-HT1A receptor
  %inh 5-HT1A average: 12%
  %inh 5-HT1A corrected*: 12%
  %inh 5-HT1A exp_1: 10%
  %inh 5-HT1A exp_2: 14%
Human 5-HT7b receptor
  5-HT7 % Inhibition by plate position: 0%
  %inh 5-HT7 average: -2.69%
  %inh 5-HT7 exp_1: -1.55%
  %inh 5-HT7 exp_2: -4%
Human 5-HT6 receptor
  5-HT6 % Inhibition by plate position: 41%
  %inh 5-HT6 average: 41%
  %inh 5-HT6 corrected*: 41%
  %inh 5-HT6 exp_1: 40%
  %inh 5-HT6 exp_2: 42%
